# Laboratory results reported in US20230017786A1, “DEXTR[…] A DISEASE-MODIFYING TREATMENT FOR NEUROPSYCHIATRIC DISORDERS AND DISEASES” (priority 2020, published 2023).
# Experiments:
# [1] = molecular target: T1, recombinant human NMDAR GluN1 plus GluN2D (Homo sapiens, UniProt O15399+Q05586); assay: FLIPR calcium assay, gentamicin as PAM (Example 5 Part I), GluN2D cell line; assay type: cell-based; conditions: 10 μM test item; dextromethadone in presence and absence of 10 μM gentamicin
# T1 construct: expressed in transfected cells; host or cells: CHO
# T1 sequence (O15399 28-1336, other chains not shown): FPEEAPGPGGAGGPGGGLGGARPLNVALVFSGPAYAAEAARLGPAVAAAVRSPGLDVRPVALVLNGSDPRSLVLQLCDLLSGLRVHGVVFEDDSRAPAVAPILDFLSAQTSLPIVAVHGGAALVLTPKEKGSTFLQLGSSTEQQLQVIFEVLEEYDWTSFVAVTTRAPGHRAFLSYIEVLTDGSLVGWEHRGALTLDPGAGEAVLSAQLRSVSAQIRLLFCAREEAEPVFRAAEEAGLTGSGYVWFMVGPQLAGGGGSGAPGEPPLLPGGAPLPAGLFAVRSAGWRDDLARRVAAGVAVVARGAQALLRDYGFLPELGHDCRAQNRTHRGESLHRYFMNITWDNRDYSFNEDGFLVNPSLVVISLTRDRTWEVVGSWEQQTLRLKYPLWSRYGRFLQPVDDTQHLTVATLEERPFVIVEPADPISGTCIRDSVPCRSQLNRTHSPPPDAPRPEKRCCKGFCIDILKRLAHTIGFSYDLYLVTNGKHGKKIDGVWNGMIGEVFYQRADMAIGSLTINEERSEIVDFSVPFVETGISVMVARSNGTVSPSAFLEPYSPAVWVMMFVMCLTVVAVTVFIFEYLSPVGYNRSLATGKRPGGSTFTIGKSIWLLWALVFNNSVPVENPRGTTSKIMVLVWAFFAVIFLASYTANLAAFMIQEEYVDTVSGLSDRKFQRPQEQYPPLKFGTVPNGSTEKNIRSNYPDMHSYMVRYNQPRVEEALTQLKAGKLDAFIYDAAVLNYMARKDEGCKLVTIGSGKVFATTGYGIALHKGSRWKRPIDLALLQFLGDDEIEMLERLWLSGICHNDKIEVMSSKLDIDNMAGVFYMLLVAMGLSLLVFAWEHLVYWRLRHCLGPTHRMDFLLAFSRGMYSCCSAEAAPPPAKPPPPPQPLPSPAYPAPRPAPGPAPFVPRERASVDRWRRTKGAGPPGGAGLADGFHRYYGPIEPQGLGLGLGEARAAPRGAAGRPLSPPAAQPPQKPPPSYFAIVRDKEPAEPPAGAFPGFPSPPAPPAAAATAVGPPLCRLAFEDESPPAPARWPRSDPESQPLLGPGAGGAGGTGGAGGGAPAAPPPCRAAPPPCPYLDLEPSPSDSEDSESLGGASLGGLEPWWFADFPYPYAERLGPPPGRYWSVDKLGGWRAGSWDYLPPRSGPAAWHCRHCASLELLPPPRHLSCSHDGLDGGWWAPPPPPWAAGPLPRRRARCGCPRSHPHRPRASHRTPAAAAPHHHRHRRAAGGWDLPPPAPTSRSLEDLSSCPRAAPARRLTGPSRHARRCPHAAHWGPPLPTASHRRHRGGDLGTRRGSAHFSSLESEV
# Description: A FLIPR calcium assay was used to profile gentamicin using stable cell lines expressing diheteromeric recombinant human NMDARs, containing GluN1 plus one amongst GluN2A, GluN2B, GluN2C or GluN2D subunit.
# [2] = molecular target: T2, human NMDA receptor GluN1-GluN2C (Homo sapiens, UniProt Q05586+Q14957); assay: FLIPR calcium assay, quinolinic acid, gentamicin, dextromethadone (Example 5 Part II), GluN1-GluN2C-CHO; assay type: cell-based; conditions: 10 μM glycine; for calcium response (mean±SEM): GluN2C, n=42
# T2 construct: expressed in transfected cells; host or cells: CHO
# T2 sequence (Q14957 20-1233, other chains not shown): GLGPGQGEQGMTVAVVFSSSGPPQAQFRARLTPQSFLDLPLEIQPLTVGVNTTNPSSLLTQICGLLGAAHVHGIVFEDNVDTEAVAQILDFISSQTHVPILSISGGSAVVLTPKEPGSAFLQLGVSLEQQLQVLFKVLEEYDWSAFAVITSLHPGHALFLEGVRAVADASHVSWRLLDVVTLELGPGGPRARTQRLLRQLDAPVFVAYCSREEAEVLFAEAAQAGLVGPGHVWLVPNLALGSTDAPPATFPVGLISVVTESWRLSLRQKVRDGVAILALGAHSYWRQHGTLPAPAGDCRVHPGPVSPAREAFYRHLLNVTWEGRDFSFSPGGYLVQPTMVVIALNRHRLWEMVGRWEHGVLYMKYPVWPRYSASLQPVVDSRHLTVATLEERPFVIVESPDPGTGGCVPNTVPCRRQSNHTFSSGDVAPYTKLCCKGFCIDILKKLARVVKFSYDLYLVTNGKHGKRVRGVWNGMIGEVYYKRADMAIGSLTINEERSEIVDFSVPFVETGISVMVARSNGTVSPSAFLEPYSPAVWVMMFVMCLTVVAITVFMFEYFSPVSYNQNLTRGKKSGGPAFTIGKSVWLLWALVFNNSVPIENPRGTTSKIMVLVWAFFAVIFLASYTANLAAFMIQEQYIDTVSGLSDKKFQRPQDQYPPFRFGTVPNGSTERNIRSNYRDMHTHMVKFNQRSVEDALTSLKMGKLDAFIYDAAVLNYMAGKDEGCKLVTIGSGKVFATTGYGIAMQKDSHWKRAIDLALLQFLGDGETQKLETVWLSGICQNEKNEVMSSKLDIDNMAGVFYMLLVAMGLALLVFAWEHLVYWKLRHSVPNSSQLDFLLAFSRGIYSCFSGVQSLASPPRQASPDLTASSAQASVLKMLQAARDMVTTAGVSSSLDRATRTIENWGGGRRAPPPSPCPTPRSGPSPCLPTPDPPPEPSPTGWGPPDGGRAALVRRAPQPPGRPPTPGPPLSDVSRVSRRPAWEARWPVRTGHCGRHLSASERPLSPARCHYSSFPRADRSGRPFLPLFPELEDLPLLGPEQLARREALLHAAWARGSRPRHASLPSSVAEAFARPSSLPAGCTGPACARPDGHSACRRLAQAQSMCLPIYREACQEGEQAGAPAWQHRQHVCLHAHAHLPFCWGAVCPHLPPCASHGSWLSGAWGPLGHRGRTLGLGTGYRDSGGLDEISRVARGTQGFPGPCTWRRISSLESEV
# patients with MDD = assay: Phase 2 sub-analysis, MADRS and SDQ composite indexes and single functional items; assay type: in vivo, human
# Description: The present inventors selected items from the MADRS and SDQ scales and created Composite Indexes of cognitive and motivational functions: Cognitive composite index: [MADRS 6 (concentration difficulties), SDQ 16 (wakefulness), SDQ 22 (slowed down feeling, SDQ 35 (ability to focus), SDQ 36 (ability to remember), SDQ 37 (ability to find words), SDQ 38 (sharpness), SDQ 39 (ability to make decisions), SDQ 42 (ability to work)]; Motivation-energy composite index: [MADRS 7 (lassitude), SDQ 7 (motivation), SDQ 20 (energy)]; Mood composite index: [MADRS 1 (reported sadness), SDQ 1, 2, 3 (mood)]; Sleep composite index: [MADRS 4 (reduced sleep), SDQ 13 (ability to fall asleep), SDQ 14 (ability to stay asleep in the middle of the night), SDQ 15 (ability to stay asleep around the time before waking up)]; The present inventors also separately analyzed two additional single functional items part of the SDQ. 1) Social function, single question (SDQ 41, social functioning); 2) sexual function, single question (SDQ 40, sexual functioning).
# Analysis of Change from Baseline at different times after the onset of treatment: The likelihood-based method applied is the Mixed-Effect Model Repeated Measures (MMRM) model with fixed-effect terms for treatment, visit (Day 2, Day 4, Day 7, Day 14) and the interaction between treatment and visit. The LS means and the LS means difference (the difference between REL-1017 and Placebo in the LS means) are provided along with the p-value for testing the hypothesis of no difference and the Cohen's effect size (calculated based on the LS mean differences and the pooled standard deviations). The 25 mg and 50 mg dosages are considered separately and combined: 25 mg+50 mg, Combined Treatment Group (CTG).
# [3] = 25 mg, day not given (first set)
# [4] = 50 mg, day not given (first set)
# [5] = CTG 25 mg+50 mg, day not given (first set)
smiles,measurement,setting,value
"CCC(=O)C(C[C@H](C)N(C)C)(c1ccccc1)c1ccccc1 [Dextromethadone, dextromethadone]",calcium entry induced by 0.04 μM L-glutamate,[1],significantly reduced
same,calcium entry induced by 0.2 μM L-glutamate,[1],significantly reduced
same,calcium entry induced by 10 μM L-glutamate,[1],significantly reduced
same,calcium response (mean±SEM),[2]; 0.04 μM L-Glu + 10 μM DXT,1.6 ± 0.4
same,calcium response (mean±SEM),[2]; 0.04 μM L-Glu + 100 μM QA + 10 μM DXT,−2.5 ± 0.7
same,calcium response (mean±SEM),[2]; 0.04 μM L-Glu + 1000 μM QA + 10 μM DXT,−8.6 ± 1.5
same,calcium response (mean±SEM),[2]; 0.2 μM L-Glu + 10 μM DXT,13 ± 0.7
same,calcium response (mean±SEM),[2]; 0.2 μM L-Glu + 100 μM QA + 10 μM DXT,7.7 ± 0.6
same,calcium response (mean±SEM),[2]; 0.2 μM L-Glu + 1000 μM QA + 10 μM DXT,−3.8 ± 0.9
same,"% effect on calcium entry, 100 QA + 10 DXT",[2]; 100 μM QA + 10 μM DXT,−3.3 ± 0.5%
same,calcium response (mean±SEM),[2]; 1000 μM QA + 10 μM DXT,−8.0 ± 0.4
same,"% effect on calcium entry, 1000 QA + 10 DXT",[2]; 1000 μM QA + 10 μM DXT,−8.0 ± 0.4%
same,calcium response (mean±SEM),[2]; 1000 μM QA + 10 μg/ml GENT + 10 μM DXT,−11 ± 0.9
same,calcium response (mean±SEM),[2]; Table 41: 0.04 μM L-Glu + 10 μM DXT,1.6 ± 0.4
same,calcium response (mean±SEM),[2]; Table 43: 0.2 μM L-Glu + 10 μM DXT,13 ± 0.7
same,"Social function (SDQ 41), LS mean difference vs placebo","patients with MDD; 25 mg, Day 7",−1.07
same,"Social function (SDQ 41), effect size","patients with MDD; 25 mg, Day 7",0.65
same,"Sexual function (SDQ 40), LS mean difference vs placebo","patients with MDD; 25 mg, Day 14",−1.32
same,"Sexual function (SDQ 40), effect size","patients with MDD; 25 mg, Day 14",0.93
same,"Social function (SDQ 41), LS mean difference vs placebo","patients with MDD; 25 mg, Day 14","−1,246"
same,"Social function (SDQ 41), effect size","patients with MDD; 25 mg, Day 14",0.99
same,"Sexual function (SDQ 40), LS mean difference vs placebo",patients with MDD; [3],−0.66
same,"Sexual function (SDQ 40), effect size",patients with MDD; [3],0.48
same,"Social function (SDQ 41), LS mean difference vs placebo","patients with MDD; 50 mg, Day 7",−1
same,"Social function (SDQ 41), effect size","patients with MDD; 50 mg, Day 7",0.57
same,"Sexual function (SDQ 40), LS mean difference vs placebo","patients with MDD; 50 mg, Day 14",−0.4
same,"Sexual function (SDQ 40), effect size","patients with MDD; 50 mg, Day 14",0.29
same,"Social function (SDQ 41), effect size","patients with MDD; 50 mg, Day 14",0.98
same,"Sexual function (SDQ 40), LS mean difference vs placebo",patients with MDD; [4],−0.28
same,"Sexual function (SDQ 40), effect size",patients with MDD; [4],0.19
same,"Social function (SDQ 41), effect size","patients with MDD; CTG 25 mg+50 mg, Day 7",0.61
same,"Sexual function (SDQ 40), LS mean difference vs placebo","patients with MDD; CTG 25 mg+50 mg, Day 14",−0.86
same,"Sexual function (SDQ 40), effect size","patients with MDD; CTG 25 mg+50 mg, Day 14",0.59
same,"Social function (SDQ 41), LS mean difference vs placebo","patients with MDD; CTG 25 mg+50 mg, Day 14",−1.19
same,"Social function (SDQ 41), effect size","patients with MDD; CTG 25 mg+50 mg, Day 14",0.99
same,"Sexual function (SDQ 40), LS mean difference vs placebo",patients with MDD; [5],−0.46
same,"Sexual function (SDQ 40), effect size",patients with MDD; [5],0.32
